In patent publication US11083735B2, “Methods for treating sleep disorders, sleep disturbances, and related symptoms using aminosterol compositions” (Enterin, Inc., priority 2017, dated 2021):

Key:
[1] = system: patients with PD and constipation; test: Phase 2 trial Stage 2: adverse events; conditions: for Common adverse events by dose: Dizziness: lightheadedness included
Experimental: In Stage 2, 34 patients were evaluated. […] This dose was then maintained (“fixed dose”) for an additional 3-5 days. After the “fixed dose”, these patients were randomly assigned to either continued treatment at that dose or to a matching placebo, for an additional 4-6 days prior to a 2-week wash-out.
A second cohort of 19 patients received squalamine (ENT-01) escalating from 100 mg/day to a maximum of 250 mg/day without subsequent randomization to squalamine (ENT-01) or placebo. Criteria for dose selection and efficacy were identical to those used in the previous cohort.
Adverse events were coded using the current version of MedDRA. Severity of AEs were assessed by investigators according to CTCAE (v4.03): Grade 1 is labeled as Mild, Grade 2 as Moderate, and Grade 3 and above as Severe. […] The number (percentage) of subjects who experienced an AE during escalation and fixed dosing periods were summarized by dose level and overall for each stage. The denominator for calculating the percentages were based on the number of subjects ever exposed to each dose and overall.

[2] = Pharmacokinetics of orally administered squalamine (ENT-01) in Stage 2; assay type: in vivo, human; conditions: Stage 2, oral; for Cmax: squalamine ion, mean
Experimental: Pharmakokinetics: PK data were collected on the 10 patients enrolled in Stage 1 and 10 patients enrolled in Stage 2 to determine the extent of systemic absorption. In Stage 1, PK data were obtained at each visit, pre-medication, at 1, 2, 4, 8 and 24 hours (Table 14). In Stage 2, PK was measured on days 1 and 6 of the randomization period pre-medication, at 1, 2, 4 and 8 hours (Table 15).
The mean Cmax, Tmax and T1/2 and AUC of the squalamine ion following squalamine (ENT-01) oral dosing for Stage 1 patients. The PK analyses are only approximate, as the lower limit of the validated concentration range was 10 ng/ml; most of the measured concentrations fell below that value. The mean Cmax, Tmax and T1/2 and AUC of the squalamine ion following squalamine (ENT-01) oral dosing for Stage 2 patients. The PK analyses are only approximate, as the lower limit of the validated concentration range was 0.5 ng/ml.

αS = αS (Homo sapiens, UniProt P37840); conditions: in vitro (Perni et al. 2017); cited from earlier work

## CC(C)[C@@H](CC[C@@H](C)[C@H]1CC[C@H]2[C@@H]3[C@H](O)C[C@H]4C[C@@H](NCCCNCCCCN)CC[C@]4(C)[C@H]3CC[C@]12C)OS(=O)(=O)O (single isomer, unassigned; ent-01) [ENT-01]
[1]; Stage 2
  AEs confined to the GI tract: 63%
[1]; Stage 2, 15/34
  Diarrhea, patients: 44%
[1]; Stage 2, 18/34
  nausea, patients: 52.9%
[1]; Stage 2, 34 dosed
  Abdominal pain, Mild: 4(11.7) n, %
  Abdominal pain, Moderate: 2(5.8) n, %
  Blood in urine, Mild: 0 n, %
  Blood in urine, Moderate: 0 n, %
  Diarrhea, Mild: 12(35) n, %
  Diarrhea, Moderate: 2(5.8) n, %
  Diarrhea, Severe: 1(2.9) n, %
  Difficulty falling asleep, Mild: 1(3) n, %
  Difficulty falling asleep, Moderate: 0 n, %
  Dizziness, Mild: 7(20.5) n, %
  Dizziness, Moderate: 1(2.9) n, %
  Flatulence, Mild: 1(3) n, %
  Flatulence, Moderate: 0 n, %
  Headache, Mild: 3(8.8) n, %
  Headache, Moderate: 0 n, %
  Increased urinary frequency, Mild: 2(5.8) n, %
  Increased urinary frequency, Moderate: 0 n, %
  Loss of appetite, Mild: 0 n, %
  Loss of appetite, Moderate: 0 n, %
  Nausea, Mild: 18(52) n, %
  Nausea, Moderate: 1(2.9) n, %
  Skin lesions-rash, Mild: 3(8.8) n, %
  Skin lesions-rash, Moderate: 0 n, %
  Urinary retention, Mild: 1(3) n, %
  Urinary retention, Moderate: 0 n, %
  Vomiting, Mild: 2(5.8) n, %
  Vomiting, Moderate: 0 n, %
  Worsening acid reflux, Mild: 4(11.7) n, %
  Worsening acid reflux, Moderate: 0 n, %
  Worsening hemorrhoid, Mild: 1(3) n, %
  Worsening hemorrhoid, Moderate: 0 n, %
[1]; Stage 2, dose 75 mg
  Common adverse events by dose: Diarrhea: 7
  Common adverse events by dose: Nausea: 3
  Common adverse events by dose: Dizziness: 8
[1]; Stage 2, dose 100 mg
  Common adverse events by dose: Diarrhea: 10
  Common adverse events by dose: Nausea: 12
  Common adverse events by dose: Dizziness: 7
[1]; Stage 2, dose 125 mg
  Common adverse events by dose: Diarrhea: 3
  Common adverse events by dose: Nausea: 4
  Common adverse events by dose: Dizziness: 8
[1]; Stage 2, dose 150 mg
  Common adverse events by dose: Diarrhea: 2
  Common adverse events by dose: Nausea: 11
  Common adverse events by dose: Dizziness: 2
[1]; Stage 2, dose 175 mg
  Common adverse events by dose: Diarrhea: 1
  Common adverse events by dose: Nausea: 12
  Common adverse events by dose: Dizziness: 0
[1]; Stage 2, dose 200 mg
  Common adverse events by dose: Diarrhea: 2
  Common adverse events by dose: Nausea: 6
[1]; Stage 2, dose 225 mg
  Common adverse events by dose: Diarrhea: 3
  Common adverse events by dose: Nausea: 1
[1]; Stage 2, dose 250 mg
  Common adverse events by dose: Diarrhea: 2
[1]; Stage 2, Unrelated to ENT-01 (diverticulosis, polyp, aspirin, Plavix, naproxen)
  Lower GI bleed, Severe: 1(2.5) n, %
[2]; dose 75 mg
  AUC0-8 hr: 59.0 ng·h/mL
  Tmax (Median Value): 3.0 h
  Cmax: 10.0 ng/mL
[2]; dose 100 mg
  AUC0-8 hr: 70.3 ng·h/mL
  Tmax (Median Value): 1.0 h
  Cmax: 17.7 ng/mL
[2]; dose 175 mg
  AUC0-8 hr: 66.8 ng·h/mL
  Tmax (Median Value): 2.0 h
  Cmax: 11.8 ng/mL
αS
  formation of aggregates of αS: inhibit the formation of aggregates
